# Reference: PubChem BioAssay AID720588 (Broad Institute, 2013)
# The source made the active and inactive calls.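 The calls were made as follows: active = fitted curve falls past a set limit of signal loss at no more than twice the top dose; inconclusive = flat fit between 30 and 70% signal loss, or poor fit; inactive = signal rise, flat within 30%, or crossing too high.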
# Experiment: HEK293T cell cytotoxicity, dose response, cytotoxicity control, CellTiter-Glo luminescence, cherry-pick, set 3 (AID 720588)
# Conditions: HEK293T viability, CellTiter-Glo ATP luminescence, 72 h; at 21 µM (top of the series)
row,Structure (SMILES),"activity change, negative = cytotoxicity"
1,C[C@H](CO)N1C[C@H](C)[C@H](CN(C)CC2CCCCC2)Oc2ccc(NC(=O)CCCCCC(=O)Nc3ccccc3N)cc2CC1=O,5.04% (inactive)

# Same assay, conditions: HEK293T viability, CellTiter-Glo ATP luminescence, 72 h; at 23.5 µM (top of the series)
row,Structure (SMILES),"activity change, negative = cytotoxicity"
1,CCCNC(=O)N1[C@H](C#N)[C@H](c2ccc(C#Cc3cccc(F)c3)cc2)[C@H]1CO,-0.501% (inactive)
2,N#C[C@H]1N[C@H](CO)[C@H]1c1ccc(C#Cc2ccccc2F)cc1,-11.8% (inactive)

# Same assay, conditions: HEK293T viability, CellTiter-Glo ATP luminescence, 72 h; at 26 µM (top of the series)
row,Structure (SMILES),"activity change, negative = cytotoxicity"
1,COc1ccc(/C=C/C(=O)c2cc(F)ccc2OC(=O)c2ccccc2OC)cc1OC,-12.6% (inactive)
2,CCCn1c(C)cc(C(=O)CN2C(=O)c3ccccc3S2(=O)=O)c1C,4.1% (inactive)
3,Nc1ccc(Oc2ccccc2-c2ccccc2)cc1,-8.94% (inactive)
4,COC(=O)C[C@@H]1CC[C@@H]2[C@@H](COc3ccc(NC(=O)Nc4ccc(C#N)cc4)cc3C(=O)N2C)O1,47.6% (inactive)
5,CC(=NNc1ccc2ccccc2n1)c1ccccc1O,-9.29% (inactive)
6,COc1ccc(CNc2ncc(-c3ccc(F)cc3)n2C)c2ccccc12,-13.3% (inactive)
7,CCS(=O)(=O)N1Cc2ccccc2CC1C(=O)Nc1nnc(SCc2ccc(C#N)cc2)s1 (configuration not stated),-8.94% (inactive)
8,CCOc1ccc(/C=C2\CCc3ccccc3C2=O)cc1,-4.04% (inactive)
9,Cc1ccc(C(C(=O)NCc2ccco2)N(C(=O)CNC(=O)c2cccs2)c2c(C)cc(C)cc2C)cc1 (configuration not stated),-19.4% (inactive)
10,C[C@H]1CN([C@@H](C)CO)C(=O)c2cccc(NC(=O)CCCCCC(=O)Nc3ccccc3N)c2O[C@@H]1CN(C)Cc1ccc2c(c1)OCO2,-20.1% (inactive)
11,CN(C)c1ncnc2c1ccn2C1OC(CO)C(O)C1O (configuration not stated),-37% (inactive)
12,CCc1ccc(/C=C2\SC(=S)N(CCCC(=O)Nc3cc(C)on3)C2=O)cc1,-27.1% (inactive)
13,COc1ccc(OC)c(-c2cc(C(F)(F)F)c3c(n2)sc2c(O)cc(=O)[nH]c23)c1,2.36% (inactive)
14,COc1ccc2oc(C(=O)NCCc3ccccc3)c(C)c2c1,-22.1% (inactive)
15,COC(=O)C[C@@H]1CC[C@@H]2[C@H](COc3ccc(NC(=O)c4cc(F)cc(F)c4)cc3C(=O)N2C)O1,-1.07% (inactive)
16,CCCc1nc2ccc(NC(=O)c3cccs3)cc2c(=O)n1Cc1ccccc1Cl,-2.41% (inactive)
17,O=C(NC(c1ccc(F)cc1)c1ccc2ccccc2n1)C1CCN(Cc2cccc(C(F)(F)F)c2)CC1 (configuration not stated),-38.4% (inactive)

row,Structure (SMILES),"activity change, negative = cytotoxicity"
1,Cc1ccc(S(=O)(=O)Nc2ccc3c(c2)C(=O)N([C@H](C)CO)C[C@@H](C)[C@@H](CN(C)Cc2ccc(C(=O)Nc4ccccc4N)cc2)O3)cc1,-2.74% (inactive)
2,COc1ccc(S(=O)(=O)N=Nc2c(O)[nH]c3ccccc23)cc1,16.2% (inactive)
3,C[C@@H]1CCCCO[C@H](CN(C)Cc2ccc(C(=O)Nc3ccccc3N)cc2)[C@@H](C)CN([C@@H](C)CO)C(=O)c2cc(NS(=O)(=O)c3ccc(Cl)cc3)ccc2O1,-25.9% (inactive)
4,Nc1cc2c(cc1Br)[nH]c(=O)c1ccccc12,17.5% (inactive)
5,N#C[C@H]1[C@H](c2ccc(C#Cc3ccccc3F)cc2)[C@@H](CO)N1C(=O)C1CCOCC1,-4.64% (inactive)
6,CCc1c(C(=O)NN2C(=O)C3CCCCC3C2=O)csc1C (configuration not stated),-15.1% (inactive)
7,CCc1cnc(N2[C@H](C#N)[C@H](c3ccc(C#Cc4ccccc4F)cc3)[C@H]2CO)s1,-15.3% (inactive)
8,COc1ccc(/C=N/Nc2ccc(C(=O)O)cc2)cc1Br,-6.35% (inactive)
9,O=C(Nc1cccc(Oc2ccc3c(c2)C(=O)NC3=O)c1)c1cccs1,-22.5% (inactive)
10,C[C@H]1CN([C@@H](C)CO)C(=O)Cc2cc(NC(=O)CCCCCC(=O)Nc3ccccc3N)ccc2O[C@H]1CN(C)Cc1ccc(Oc2ccccc2)cc1,-3.08% (inactive)
11,C/C=C/c1ccc([C@H]2[C@@H](CO)N3C(=O)CN(S(=O)(=O)c4cccc(F)c4)C[C@@H]23)cc1,34.3% (inactive)
12,COc1cccc(S(=O)(=O)N(C)C[C@H]2OCc3cnnn3CCCC(=O)N([C@@H](C)CO)C[C@H]2C)c1,5% (inactive)
13,Cc1ccc(N2C(=O)c3cccc4c(N)ccc(c34)C2=O)c2cccnc12,-19.1% (inactive)
14,Cc1ccc(Cc2c(-c3ccco3)nc3c(C)cc(Br)cn23)cc1,15.5% (inactive)
15,O=C(C[C@@H]1CC[C@@H]2[C@H](COC[C@@H](O)CN2S(=O)(=O)c2ccc(F)cc2)O1)NCc1ccc(Cl)c(Cl)c1,2.6% (inactive)
16,CN(C)c1ccc(N=Nc2ccccc2Br)cc1,-16.8% (inactive)
17,CN(C)c1ccc(/C=N/Nc2nc3ccccc3o2)cc1,-21.5% (inactive)
